Bounds are passed on as bounds.

Assay [1] concerns the target Histamine H3 receptor (Cavia porcellus) (UniProt Q9JI35). The assay is described as follows: Inhibition of neurogenic contractions in guinea pig ileum mediated by histamine H3 receptors. Type of assay: functional, tissue-based.
Another assay deals with Histamine H3 receptor (Cavia porcellus, UniProt Q9JI35). The assay is described as follows: Ability to displace [3H]R-alpha-methylhistamine from histamine H3 receptor in guinea pig ileum longitudinal muscle myenteric plexus(LMMP) membranes. The assay is classed as tissue-based.
Sequence of Histamine H3 receptor (Q9JI35 whole entry): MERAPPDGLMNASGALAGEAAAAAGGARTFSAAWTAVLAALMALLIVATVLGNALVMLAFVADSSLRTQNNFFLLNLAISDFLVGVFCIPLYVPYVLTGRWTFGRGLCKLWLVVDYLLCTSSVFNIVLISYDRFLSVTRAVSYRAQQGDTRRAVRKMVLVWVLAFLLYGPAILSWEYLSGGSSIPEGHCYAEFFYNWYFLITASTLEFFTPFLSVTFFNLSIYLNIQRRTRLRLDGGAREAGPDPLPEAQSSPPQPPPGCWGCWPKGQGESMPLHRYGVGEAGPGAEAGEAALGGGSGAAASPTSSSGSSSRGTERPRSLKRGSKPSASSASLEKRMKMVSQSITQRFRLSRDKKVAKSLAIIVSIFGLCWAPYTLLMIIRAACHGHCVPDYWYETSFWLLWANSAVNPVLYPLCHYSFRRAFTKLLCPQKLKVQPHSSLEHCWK

Sequence of Histamine H3 receptor (Cavia porcellus) (Q9JI35 whole entry): as above

As for `O=S(=O)(Cc1ccc(Cl)cc1)NCCCCCCCCCCc1c[nH]cn1`, the negative logarithm of the KB (pKB) (in general, the KB on a negative log10 scale, so that one unit is a factor of ten) in assay [1] is below 5.
Compound `O=S(=O)(NCCCCCCCc1c[nH]cn1)NCc1ccc(Cl)cc1` came in with a pKB in assay [1] of 8.37.
As for `O=S(=O)(NCCCCCCc1c[nH]cn1)NCc1ccc(Cl)cc1`, in assay [1], the pKB worked out at 8.77.
In assay [1], `O=S(=O)(NCCCCc1c[nH]cn1)NCc1ccc(Cl)cc1` gave a pKB of 8.68.
In assay [1], `O=S(=O)(NCCCCc1c[nH]cn1)NCc1ccc(-c2ccccc2)cc1` displayed a pKB of 8.32.
The same measure, in the same setting: next, `O=S(=O)(Cc1ccc(Cl)cc1)NCCCCCCCCc1c[nH]cn1`: 6.64.
The same measure, in the same setting: next, `O=S(=O)(NCCCCc1c[nH]cn1)NCc1ccc(F)cc1`: 7.7; `O=S(=O)(Cc1ccc(C(F)(F)F)cc1)NCCCCc1c[nH]cn1`: 7.89.
For `O=S(=O)(NCCCCCCCCc1c[nH]cn1)NCc1ccc(Cl)cc1`, at Histamine H3 receptor, the Ki (as a rule, the dissociation constant of the complex between target and ligand, obtained from inhibition or displacement) was 13.2 nM. Moreover, the pKB in assay [1] was found to be 7.37.
`O=S(=O)(NCCCCCc1c[nH]cn1)NCc1ccc(Cl)cc1` gave a pKB in assay [1] of 8.2.
Consider `O=S(=O)(Cc1ccc(F)cc1)NCCCCc1c[nH]cn1`, for which the pKB in assay [1] was 7.32.
In the case of `O=S(=O)(NCCCCc1c[nH]cn1)NCc1ccc(I)cc1`, in assay [1], the pKB amounted to 8.49.
On the same count and under the same terms, next, `O=S(=O)(Cc1ccc(Cl)cc1)NCCCCCCc1c[nH]cn1`: 8.01.
Compound `O=S(=O)(NCCCCc1c[nH]cn1)NCc1ccc(C(F)(F)F)cc1` showed an inhibition constant Ki on Histamine H3 receptor of 2.63 nM. In addition, the pKB in assay [1] came out at 8.48.
`O=S(=O)(NCCCc1c[nH]cn1)NCc1ccc(Cl)cc1` showed a negative-log KB (pKB) in assay [1] of 7.04.
Same read-out and setting: next, `O=S(=O)(NCCCCc1c[nH]cn1)NCc1ccc(Br)cc1`: 8.91; `COc1ccc(CNS(=O)(=O)NCCCCc2c[nH]cn2)cc1`: 7.06; `O=S(=O)(NCCCCc1c[nH]cn1)NCc1cccc(Cl)c1`: 7.86.
Still for that read-out and setting: for `O=S(=O)(NCCCCc1c[nH]cn1)NCc1ccccc1Cl` the value was 6.42; for `O=S(=O)(Cc1ccc(Br)cc1)NCCCCc1c[nH]cn1`, 7.68.
Still for that read-out and setting: for `O=S(=O)(NCCCCc1c[nH]cn1)NCc1ccccc1` the value was 7.01.
Turning to `O=S(=O)(Cc1ccc(Cl)cc1)NCCCc1c[nH]cn1`, the pKB in assay [1] was determined as 6.29.
The same measure, in the same setting: for `O=S(=O)(NCCCCCCCCCCc1c[nH]cn1)NCc1ccc(Cl)cc1` the value was below 5.
On the same count and under the same terms, for `O=S(=O)(Cc1ccc(Cl)cc1)NCCCCCCCc1c[nH]cn1` the value was 7.36; for `O=S(=O)(Cc1ccc(Cl)cc1)NCCCCCc1c[nH]cn1`, 7.33.
With `O=S(=O)(Cc1ccc(Cl)cc1)NCCCCc1c[nH]cn1`, the pKB in assay [1] was 8.62.
In turn, `O=S(=O)(Cc1ccc(-c2ccccc2)cc1)NCCCCc1c[nH]cn1` showed a pKB in assay [1] of 8.1.
